“Also recorded” adds a separate entry of the source.

The data set in a line: Dynamic vapour sorption (DVS) with XRPD of retained solid. It is filed as physicochemical. The protocol: 10-20 mg of sample was placed into a mesh vapour sorption balance pan and loaded into a DVS-1 dynamic vapour sorption balance by Surface Measurement Systems. The sample was subjected to a ramping profile from 40-90% relative humidity (RH) at 10% increments, maintaining the sample at each step until a stable weight had been achieved (dm/dt 0.004%, minimum step length 30 minutes, maximum step length 500 minutes) at 25° C. After completion of the sorption cycle, the sample was dried using the same procedure to 0% RH and then a second sorption cycle back to 40% RH. Two cycles were performed. The weight change during the sorption/desorption cycles were plotted, allowing for the hygroscopic nature of the sample to be determined. XRPD analysis was then carried out on any solid retained.

On to `COc1cc(O[C@H]2C(C)(C)[C@H](NC(=O)c3ccc(N4CCC(CN5CCN(c6ccc(C(=O)N[C@H]7CCC(=O)NC7=O)c(F)c6)CC5)CC4)cc3)C2(C)C)ccc1C#N` [Compound A, 4-(4-((1-(4-(((1R,3R)-3-(4-cyano-3-methoxyphenoxy)-2,2,4,4-tetramethylcyclobutyl)carbamoyl)phenyl)piperidin-4-yl)methyl)piperazin-1-yl)-N—((S)-2,6-dioxopiperidin-3-yl)-2-fluorobenzamide], for which the “form by XRPD post DVS” value is recorded as “Crystallization was not observed; also recorded: remained amorphous by XRPD”. The “hygroscopic nature (DVS)” value (25° C.) is reported as “hygroscopic”. For the same compound, for the setting “at 90% RH, 25° C.”, the “average mass uptake of water (DVS)” value stood at 4.08 wt. % and the “mass uptake of water (DVS), equivalents” value amounted to 1.91 eq.

Source of the values: US20240336566A1, “CRYSTALLINE FORMS OF A COMPOUND FOR THE TARGETED DEGRADATION OF THE ANDROGEN RECEPTOR” (Arvinas Operations, Inc., priority 2023, published 2024).
